Experimental data published in ChEMBL document CHEMBL1137263, “Replacing the cyclohexene-linker of FR181157 leading to novel IP receptor agonists: orally active prostacyclin mimetics. Part 6” (Bioorg Med Chem Lett, 2006).

Legend:
[1] = Cmax in rat at 1 mg/kg, po; assay type: ADME, organism-based; parameters: dose 1 mg/kg, route oral; conditions: in vivo
[2] = Oral bioavailability in rat; assay type: ADME, organism-based; conditions: in vivo
[3] = AUC in rat at 1 mg/kg, po; assay type: ADME, organism-based; parameters: dose 1 mg/kg, route oral; conditions: plasma
Prostacyclin receptor = Prostacyclin receptor (Homo sapiens, UniProt P43119); assay: Displacement of [3H]iloprost from cloned human PGI2 receptor
Sequence of Prostacyclin receptor (P43119 whole entry): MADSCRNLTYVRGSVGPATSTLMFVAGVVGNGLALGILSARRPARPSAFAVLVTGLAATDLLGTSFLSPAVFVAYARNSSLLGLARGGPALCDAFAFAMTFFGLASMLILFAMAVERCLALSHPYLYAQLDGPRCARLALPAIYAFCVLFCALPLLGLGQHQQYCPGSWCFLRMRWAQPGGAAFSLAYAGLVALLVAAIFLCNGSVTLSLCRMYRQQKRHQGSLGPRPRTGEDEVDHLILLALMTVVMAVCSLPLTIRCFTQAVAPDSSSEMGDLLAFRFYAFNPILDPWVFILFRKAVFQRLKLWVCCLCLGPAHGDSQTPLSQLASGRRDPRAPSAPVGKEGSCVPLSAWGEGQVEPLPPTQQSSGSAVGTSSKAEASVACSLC

| Cmax [1] [ng/mL] | bioavailability [2] [%] | AUC [3] [ng·h/mL] | Ki (Prostacyclin receptor) [µM] | Compound |
| --- | --- | --- | --- | --- |
| 15.5 | 41 | 81.7 |  | Cl.O=C(O)COc1cccc(CN2CCC[C@@H]2c2nc(-c3ccccc3)c(-c3ccccc3)o2)c1 |
|  |  |  | 0.076 | O=C(O)COc1cccc(CN2CCC[C@@H]2c2nc(-c3ccccc3)c(-c3ccccc3)o2)c1 |
|  | 50 |  | 0.06 | O=C([O-])COc1cccc(C[C@@H]2CCCC=C2c2nc(-c3ccccc3)c(-c3ccccc3)o2)c1.[Na+] |
